Where “and” joins values, the source holds several entries; their conditions need not be identical. Identical values can stand only once. Toxic doses and inconclusive results are not listed. Peptide text beside a SMILES is read from it.
System: L1210 leukemia ip in BDF1 mice, survival T/C
Assay: NCI In Vivo Anticancer Drug Screen. Data for tumor model L1210 Leukemia (intraperitoneal) in B6D2F1 (BDF1) mice
Details: endpoint: mean survival time, higher = longer survival
Method in brief: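 In this screen, tumor-bearing mice given compound are compared to those given vehicle, and their survival values are reported as a treated-to-control quotient.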

[1] = dose: 50.0 mg/kg/injection, schedule: Q01DX001 (ip), vehicle: carboxymethylcellulose (CMC)
[2] = dose: 100.0 mg/kg/injection, schedule: Q01DX001 (ip), vehicle: carboxymethylcellulose (CMC)
[3] = dose: 200.0 mg/kg/injection, schedule: Q01DX001 (ip), vehicle: carboxymethylcellulose (CMC)
[4] = dose: 400.0 mg/kg/injection, schedule: Q01DX001 (ip), vehicle: carboxymethylcellulose (CMC)
[5] = dose: 100.0 mg/kg/injection, schedule: Q01DX009 (ip), vehicle: Klucel (hydroxypropylcellulose) (HPC)
[6] = dose: 100.0 mg/kg/injection, schedule: Q04DX003 (ip), vehicle: Klucel (hydroxypropylcellulose) (HPC)
[7] = dose: 200.0 mg/kg/injection, schedule: Q04DX003 (ip), vehicle: Klucel (hydroxypropylcellulose) (HPC)
[8] = dose: 100.0 mg/kg/injection, schedule: Q04DX003 (ip), vehicle: saline
[9] = dose: 400.0 mg/kg/injection, schedule: Q04DX003 (ip), vehicle: Klucel (hydroxypropylcellulose) (HPC)
[10] = dose: 200.0 mg/kg/injection, schedule: Q01DX009 (ip), vehicle: Klucel (hydroxypropylcellulose) (HPC)
[11] = dose: 400.0 mg/kg/injection, schedule: Q01DX009 (ip), vehicle: Klucel (hydroxypropylcellulose) (HPC)
[12] = dose: 100.0 mg/kg/injection, schedule: Q04DX002 (ip), vehicle: Klucel (hydroxypropylcellulose) (HPC)
[13] = dose: 100.0 mg/kg/injection, schedule: Q01DX009 (ip), vehicle: saline sonified
[14] = dose: 200.0 mg/kg/injection, schedule: Q01DX009 (ip), vehicle: saline sonified

Nc1ncnc2c1ncn2C(C=O)OC(C=O)CO (stereo not drawn)
T/C (dose: 4.37 mg/kg/injection, schedule: Q01DX009 (ip), vehicle: water): 123 % of control
T/C (dose: 4.37 mg/kg/injection, schedule: Q01DX Z (ip), vehicle: water): 123 % of control
T/C (dose: 8.75 mg/kg/injection, schedule: Q01DX Z (ip), vehicle: water): 157 % of control
T/C (dose: 8.8 mg/kg/injection, schedule: Q01DX Z (ip), vehicle: carboxymethylcellulose (CMC)): 115 % of control
T/C (dose: 13.3 mg/kg/injection, schedule: Q01DX Z (ip), vehicle: carboxymethylcellulose (CMC)): 121 % of control
T/C (dose: 17.5 mg/kg/injection, schedule: Q01DX009 (ip), vehicle: water): 172 % of control
T/C (dose: 17.5 mg/kg/injection, schedule: Q01DX Z (ip), vehicle: water): 172 % of control
T/C (dose: 30.0 mg/kg/injection, schedule: Q01DX Z (ip), vehicle: carboxymethylcellulose (CMC)): 116 % of control
T/C (dose: 35.0 mg/kg/injection, schedule: Q01DX Z (ip), vehicle: water): 92 % of control
T/C (dose: 42.0 mg/kg/injection, schedule: Q01DX Z (oral), vehicle: carboxymethylcellulose (CMC)): 115 % of control
T/C (dose: 45.0 mg/kg/injection, schedule: Q01DX Z (ip), vehicle: carboxymethylcellulose (CMC)): 100 % of control and 101 % of control
T/C (dose: 64.0 mg/kg/injection, schedule: Q01DX Z (oral), vehicle: carboxymethylcellulose (CMC)): 107 % of control
T/C (dose: 68.0 mg/kg/injection, schedule: Q01DX Z (ip), vehicle: carboxymethylcellulose (CMC)): 105 % of control and 121 % of control
T/C (dose: 79.0 mg/kg/injection, schedule: Q01DX009 (oral), vehicle: saline): 109 % of control
T/C (dose: 96.0 mg/kg/injection, schedule: Q01DX Z (oral), vehicle: carboxymethylcellulose (CMC)): 109 % of control
T/C (dose: 119.0 mg/kg/injection, schedule: Q01DX009 (oral), vehicle: saline): 109 % of control
T/C (dose: 144.0 mg/kg/injection, schedule: Q01DX Z (oral), vehicle: carboxymethylcellulose (CMC)): 96 % of control
T/C (dose: 178.0 mg/kg/injection, schedule: Q01DX009 (oral), vehicle: saline): 112 % of control

C=CCSc1ccccc1C(=O)O
T/C [1]: 122 % of control
T/C [2]: 95 % of control
T/C [3]: 106 % of control
T/C [4]: 106 % of control

C[N+]1(C)C2CCCC1CC(=O)NC2 (stereo not drawn)
T/C (dose: 75.0 mg/kg/injection, schedule: Q01DX001 (ip), vehicle: saline): 107 % of control
T/C (dose: 150.0 mg/kg/injection, schedule: Q01DX001 (ip), vehicle: saline): 104 % of control
T/C (dose: 300.0 mg/kg/injection, schedule: Q01DX001 (ip), vehicle: saline): 112 % of control

Cc1c(C(=O)CCl)c(=O)n(-c2ccccc2)n1C
T/C (dose: 50.0 mg/kg/injection, schedule: Q01DX009 (ip), vehicle: Klucel (hydroxypropylcellulose) (HPC)): 100 % of control
T/C [5]: 100 % of control
T/C [6]: 95 % of control
T/C [7]: 101 % of control

Cc1cc(N)ccc1/C=C/C(=O)O
T/C [8]: 97 % of control
T/C (dose: 200.0 mg/kg/injection, schedule: Q04DX003 (ip), vehicle: saline): 98 % of control
T/C (dose: 400.0 mg/kg/injection, schedule: Q04DX003 (ip), vehicle: saline): 93 % of control

O=C(CNC(=O)OCc1ccccc1)NCC(=O)NC(Cc1c[nH]c2ccccc12)C(=O)OCc1ccccc1 (stereo not drawn)
T/C [6]: 100 % of control
T/C [7]: 101 % of control
T/C [9]: 94 % of control

O=C1O[B-](c2ccccc2)(c2ccccc2)[NH2+]C1Cc1ccc(O)cc1 (stereo not drawn)
T/C (dose: 75.0 mg/kg/injection, schedule: Q01DX001 (ip), vehicle: acetone): 91 % of control
T/C (dose: 150.0 mg/kg/injection, schedule: Q01DX001 (ip), vehicle: acetone): 96 % of control
T/C (dose: 300.0 mg/kg/injection, schedule: Q01DX001 (ip), vehicle: acetone): 95 % of control

Cc1c(Cl)cc(C(C)C)c(O)c1CN1CCCCC1
T/C (dose: 222.0 mg/kg/injection, schedule: Q01DX Z (ip), vehicle: saline): 92 % of control
T/C (dose: 333.0 mg/kg/injection, schedule: Q01DX Z (ip), vehicle: saline): 91 % of control
T/C (dose: 500.0 mg/kg/injection, schedule: Q01DX Z (ip), vehicle: saline): 91 % of control

Cc1ccc2nn(-c3ccc(O)cc3)[n+]([O-])c2c1
T/C [2]: 102 % of control
T/C [3]: 107 % of control
T/C [4]: 93 % of control

N#CC1CC2c3ccccc3C1([N+](=O)[O-])c1ccccc12 (stereo not drawn)
T/C (dose: 100.0 mg/kg/injection, schedule: Q01DX001 (ip), vehicle: Klucel (hydroxypropylcellulose) (HPC)): 90 % of control
T/C [5]: 98 % of control
T/C (dose: 200.0 mg/kg/injection, schedule: Q01DX001 (ip), vehicle: Klucel (hydroxypropylcellulose) (HPC)): 104 % of control
T/C [10]: 98 % of control
T/C (dose: 400.0 mg/kg/injection, schedule: Q01DX001 (ip), vehicle: Klucel (hydroxypropylcellulose) (HPC)): 96 % of control
T/C [11]: 103 % of control

COC(=O)N(C1CCCCC1)C1CCCCC1
T/C [5]: 97 % of control
T/C [10]: 96 % of control
T/C [11]: 100 % of control

[N-]=[N+]=Nc1c(N=[N+]=[N-])c(NS(=O)(=O)c2ccccc2)c2ccccc2c1NS(=O)(=O)c1ccccc1
T/C (dose: 100.0 mg/kg/injection, schedule: Q04DX002 (ip), vehicle: saline with Tween-80): 87 % of control
T/C (dose: 200.0 mg/kg/injection, schedule: Q04DX002 (ip), vehicle: saline with Tween-80): 97 % of control
T/C (dose: 400.0 mg/kg/injection, schedule: Q04DX002 (ip), vehicle: saline with Tween-80): 97 % of control

NC(CCC(=O)O)C(=O)NC(CC(=O)O)C(=O)O (stereo not drawn) (H-Glu-Asp-OH; configuration not given here)
T/C (dose: 12.5 mg/kg/injection, schedule: Q04DX002 (ip), vehicle: Klucel (hydroxypropylcellulose) (HPC)): 90 % of control
T/C (dose: 25.0 mg/kg/injection, schedule: Q04DX002 (ip), vehicle: Klucel (hydroxypropylcellulose) (HPC)): 105 % of control
T/C (dose: 50.0 mg/kg/injection, schedule: Q04DX002 (ip), vehicle: Klucel (hydroxypropylcellulose) (HPC)): 98 % of control
T/C [12]: 94 % of control

CCOc1ccc(/C=C(\C#N)c2cccc(Cl)c2)cc1
T/C [5]: 100 % of control
T/C [10]: 93 % of control
T/C [11]: 91 % of control

O=C(O)c1ccc(/C=N/Nc2nnc(N/N=C/c3ccc(C(=O)O)cc3)c3ccccc23)cc1
T/C [1]: 113 % of control
T/C [2]: 113 % of control
T/C [3]: 107 % of control
T/C [4]: 104 % of control

COc1ccc([N+](=O)[O-])cc1NC(=O)c1ccc2c(c1)C(=O)OC2=O
T/C (dose: 6.25 mg/kg/injection, schedule: Q01DX009 (ip), vehicle: gum acacia): 93 % of control
T/C (dose: 12.5 mg/kg/injection, schedule: Q01DX009 (ip), vehicle: gum acacia): 88 % of control
T/C (dose: 25.0 mg/kg/injection, schedule: Q01DX009 (ip), vehicle: gum acacia): 87 % of control
T/C (dose: 50.0 mg/kg/injection, schedule: Q01DX009 (ip), vehicle: gum acacia): 86 % of control
T/C (dose: 200.0 mg/kg/injection, schedule: Q01DX009 (ip), vehicle: gum acacia): 88 % of control

O=C(O)/C(=C\c1ccccc1Br)c1ccc(C(F)(F)F)cc1[N+](=O)[O-]
T/C [13]: 109 % of control
T/C [14]: 98 % of control

O=[N+]([O-])c1ccc(S)cc1
T/C [13]: 103 % of control
T/C [6]: 89 % of control
T/C [14]: 91 % of control
T/C (dose: 400.0 mg/kg/injection, schedule: Q01DX009 (ip), vehicle: saline sonified): 92 % of control
T/C [9]: 90 % of control

CCCCCC[Se]CCCCCC
T/C (dose: 12.5 mg/kg/injection, schedule: Q01DX009 (ip), vehicle: saline): 98 % of control
T/C (dose: 25.0 mg/kg/injection, schedule: Q01DX009 (ip), vehicle: saline): 96 % of control
T/C (dose: 25.0 mg/kg/injection, schedule: Q04DX003 (ip), vehicle: saline): 101 % of control
T/C (dose: 50.0 mg/kg/injection, schedule: Q01DX009 (ip), vehicle: saline): 93 % of control and 102 % of control
T/C (dose: 50.0 mg/kg/injection, schedule: Q04DX003 (ip), vehicle: saline): 97 % of control
T/C [8]: 98 % of control and 100 % of control

CC(=O)SCN1C(=O)C2C3CCC(O3)C2C1=O (stereo not drawn)
T/C [12]: 91 % of control
T/C (dose: 200.0 mg/kg/injection, schedule: Q04DX002 (ip), vehicle: Klucel (hydroxypropylcellulose) (HPC)): 91 % of control
T/C (dose: 400.0 mg/kg/injection, schedule: Q04DX002 (ip), vehicle: Klucel (hydroxypropylcellulose) (HPC)): 105 % of control
